According to PMC7567334 (Environmental Health Perspectives, 2020):
pEC50, pIC50: −log10 of the molar value. Values joined by “and” are separate entries in the source; they are usually repeats but may differ in a detail not shown here. Equal values may be shown once. Read-outs that look alike come from different tables or passages of the source.

Legend:
[1] = tested on: TRα and TRβ; experiment: GH3.TRE-Luc TR reporter assay, agonist setup; assay type: cell-based, rat; settings: vs 0.1% DMSO
[2] = tested on: TRα and TRβ; experiment: GH3.TRE-Luc TR reporter assay, antagonist setup (0.25 nM T3); assay type: cell-based, rat
[3] = target: T1, firefly luciferase (Photinus pyralis, UniProt P08659); experiment: Luciferase inhibition assay in GH3.TRE-Luc cell lysates; assay type: biochemical; settings: cell lysate; for inhibition at 50 µM: read-out: inhibition of firefly luciferase luminescence signal
T1 construct: Only implied by 'CP' in the vector name, from my own knowledge; expressed in transfected cells; host or cells: GH3.TRE-Luc cells induced with 0.25 nM T3, lysate
Method: Serial dilutions for each treatment were prepared in the cell lysate and incubated at room temperature for 30 min.

[4] = tested on: Glucocorticoid receptor; settings: MDA-kb2 at 5 μM; ref Kolšek et al. 2014a; cited from earlier work
[5] = tested on: Thyroid receptor; settings: ZFL cell line; ref Zhou et al. 2017; cited from earlier work
[6] = tested on: stickleback AR; set-up: method as in Lange et al. 2015; settings: at 10 μM; ref Lange et al. 2015; cited from earlier work
[7] = ref Sandborgh-Englund et al. 2006, cited from earlier work
[8] = target: T2, GR (Homo sapiens, UniProt P04150); experiment: PolarScreen GR Competitor binding affinity assay; set-up: purchased Invitrogen; settings: for binding affinity assay on isolated GR, result: in words, tested up to 10 μM
T2 sequence (P04150 1-777): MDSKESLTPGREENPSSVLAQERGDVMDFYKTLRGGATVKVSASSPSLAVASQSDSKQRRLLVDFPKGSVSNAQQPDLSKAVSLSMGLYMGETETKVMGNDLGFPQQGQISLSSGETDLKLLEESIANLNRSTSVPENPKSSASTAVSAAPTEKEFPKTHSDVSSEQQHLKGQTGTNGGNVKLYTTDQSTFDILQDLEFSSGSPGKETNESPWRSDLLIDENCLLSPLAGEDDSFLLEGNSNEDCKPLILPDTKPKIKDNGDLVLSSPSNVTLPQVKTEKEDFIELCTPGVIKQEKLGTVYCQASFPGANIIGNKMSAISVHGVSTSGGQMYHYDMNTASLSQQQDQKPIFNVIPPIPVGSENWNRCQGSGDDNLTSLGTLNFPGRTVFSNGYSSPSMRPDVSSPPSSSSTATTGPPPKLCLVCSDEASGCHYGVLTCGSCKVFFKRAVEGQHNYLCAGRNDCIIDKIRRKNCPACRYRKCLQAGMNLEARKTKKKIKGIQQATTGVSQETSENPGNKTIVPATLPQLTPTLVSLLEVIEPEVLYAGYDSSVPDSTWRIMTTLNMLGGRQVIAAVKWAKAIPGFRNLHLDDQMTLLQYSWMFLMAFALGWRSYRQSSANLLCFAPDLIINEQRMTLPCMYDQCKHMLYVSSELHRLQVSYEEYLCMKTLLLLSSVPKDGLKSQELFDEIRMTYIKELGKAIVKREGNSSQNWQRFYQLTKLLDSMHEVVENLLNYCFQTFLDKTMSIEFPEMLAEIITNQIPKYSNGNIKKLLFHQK

[9] = target: T2, GR; experiment: MDA-kb2 GR reporter assay, agonist setup (with FLU); assay type: cell-based; set-up: constitutively expressed high levels of functional GR and AR; host or cells: MDA-kb2; settings: 10 μM; vs 0.1% DMSO with 5 μM FLU
[10] = target: T2, GR; experiment: MDA-kb2 GR reporter assay, antagonist setup (500 nM HC); assay type: cell-based; set-up: constitutively expressed high levels of functional GR and AR; host or cells: MDA-kb2
[11] = target: T3, human (h)AR (Homo sapiens, UniProt P10275); experiment: AR-EcoScreen hAR transcriptional activation assay, antagonist setup (500 pM DHT); assay type: cell-based
T3 sequence (P10275 1-920): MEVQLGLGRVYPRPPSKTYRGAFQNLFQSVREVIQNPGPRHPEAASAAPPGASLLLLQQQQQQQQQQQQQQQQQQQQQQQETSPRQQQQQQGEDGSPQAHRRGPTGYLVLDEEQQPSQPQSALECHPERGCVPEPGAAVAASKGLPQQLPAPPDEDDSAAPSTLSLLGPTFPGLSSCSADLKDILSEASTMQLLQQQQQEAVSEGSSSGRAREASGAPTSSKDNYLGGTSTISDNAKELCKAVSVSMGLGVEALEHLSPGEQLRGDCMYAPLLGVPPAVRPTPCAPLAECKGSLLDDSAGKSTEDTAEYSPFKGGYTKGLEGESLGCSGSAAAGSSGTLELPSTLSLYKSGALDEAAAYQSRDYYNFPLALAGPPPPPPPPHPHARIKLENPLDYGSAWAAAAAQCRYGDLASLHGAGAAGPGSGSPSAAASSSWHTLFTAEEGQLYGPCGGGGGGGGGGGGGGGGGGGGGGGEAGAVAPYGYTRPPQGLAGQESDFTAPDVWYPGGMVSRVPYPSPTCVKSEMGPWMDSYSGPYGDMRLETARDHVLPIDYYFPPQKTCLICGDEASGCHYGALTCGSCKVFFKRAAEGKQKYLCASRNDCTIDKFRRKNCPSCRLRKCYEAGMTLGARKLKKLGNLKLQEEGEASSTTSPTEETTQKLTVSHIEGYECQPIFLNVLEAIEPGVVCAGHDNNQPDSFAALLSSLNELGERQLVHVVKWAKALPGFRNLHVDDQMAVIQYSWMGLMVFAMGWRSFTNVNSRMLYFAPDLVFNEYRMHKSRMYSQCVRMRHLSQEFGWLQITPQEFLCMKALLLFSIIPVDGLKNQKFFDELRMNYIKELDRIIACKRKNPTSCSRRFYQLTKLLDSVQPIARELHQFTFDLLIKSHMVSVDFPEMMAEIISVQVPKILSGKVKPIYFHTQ

[12] = target: T4, AR (Rattus norvegicus, UniProt P15207); experiment: PolarScreen AR Competitor binding affinity assay
T4 construct: purchased Invitrogen
T4 sequence (P15207 651-902 limits assumed): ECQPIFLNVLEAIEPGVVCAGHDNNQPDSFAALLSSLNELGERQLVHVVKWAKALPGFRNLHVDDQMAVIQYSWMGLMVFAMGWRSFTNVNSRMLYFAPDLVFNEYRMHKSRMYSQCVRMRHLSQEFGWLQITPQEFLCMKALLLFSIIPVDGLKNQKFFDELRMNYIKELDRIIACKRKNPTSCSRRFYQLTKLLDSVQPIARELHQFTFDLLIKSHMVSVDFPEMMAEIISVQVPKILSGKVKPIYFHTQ

[13] = target: Androgen receptor; settings: ref Rostkowski et al. 2011, cited from earlier work
[14] = target: Androgen receptor; settings: ref Rostkowski et al. 2011, cited from earlier work; remark: listed apart in the source
[15] = tested on: hERα-HeLa-9903 cells; experiment: Cell viability (resazurin) in hERα-HeLa-9903 cells; settings: hERα-HeLa-9903, ERα agonist dose-response
[16] = tested on: AR-EcoScreen cells; experiment: Cell viability (resazurin) in AR-EcoScreen cells; settings: agonist assay
[17] = tested on: AroB transcription; settings: 1 nM E2 alone; zebrafish embryos; ref Chung et al. 2011; cited from earlier work
[18] = tested on: Estrogen receptor-α; settings: YES/YAS tests; ref Westlund and Yargeau 2017; cited from earlier work
[19] = target: T5, human (h) ERα (Homo sapiens, UniProt P03372); experiment: hERα-HeLa-9903 transactivation assay, agonist setup; assay type: cell-based; set-up: host or cells: hERα-HeLa-9903 (HeLa derived); settings: for higher ERα RTA than vehicle control: vs 0.1% DMSO
T5 sequence (P03372 1-595): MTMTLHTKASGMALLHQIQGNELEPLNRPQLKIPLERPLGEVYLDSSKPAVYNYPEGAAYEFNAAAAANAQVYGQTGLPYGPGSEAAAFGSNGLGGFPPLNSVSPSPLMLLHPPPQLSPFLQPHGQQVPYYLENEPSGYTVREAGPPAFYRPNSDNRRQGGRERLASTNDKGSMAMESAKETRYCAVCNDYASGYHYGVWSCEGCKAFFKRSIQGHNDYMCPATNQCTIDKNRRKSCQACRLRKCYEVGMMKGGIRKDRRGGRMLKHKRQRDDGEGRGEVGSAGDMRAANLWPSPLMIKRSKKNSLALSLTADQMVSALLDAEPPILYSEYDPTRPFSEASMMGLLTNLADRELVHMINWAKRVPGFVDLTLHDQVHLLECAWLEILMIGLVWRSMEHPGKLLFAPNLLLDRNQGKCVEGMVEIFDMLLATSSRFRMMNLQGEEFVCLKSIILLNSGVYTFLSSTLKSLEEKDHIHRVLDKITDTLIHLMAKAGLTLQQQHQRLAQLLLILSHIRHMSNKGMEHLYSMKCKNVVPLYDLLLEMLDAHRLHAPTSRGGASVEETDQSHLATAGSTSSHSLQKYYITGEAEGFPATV

[20] = 0.25 nM T3; read-out: TR antagonist IC50

T1 sequence (P08659 whole entry): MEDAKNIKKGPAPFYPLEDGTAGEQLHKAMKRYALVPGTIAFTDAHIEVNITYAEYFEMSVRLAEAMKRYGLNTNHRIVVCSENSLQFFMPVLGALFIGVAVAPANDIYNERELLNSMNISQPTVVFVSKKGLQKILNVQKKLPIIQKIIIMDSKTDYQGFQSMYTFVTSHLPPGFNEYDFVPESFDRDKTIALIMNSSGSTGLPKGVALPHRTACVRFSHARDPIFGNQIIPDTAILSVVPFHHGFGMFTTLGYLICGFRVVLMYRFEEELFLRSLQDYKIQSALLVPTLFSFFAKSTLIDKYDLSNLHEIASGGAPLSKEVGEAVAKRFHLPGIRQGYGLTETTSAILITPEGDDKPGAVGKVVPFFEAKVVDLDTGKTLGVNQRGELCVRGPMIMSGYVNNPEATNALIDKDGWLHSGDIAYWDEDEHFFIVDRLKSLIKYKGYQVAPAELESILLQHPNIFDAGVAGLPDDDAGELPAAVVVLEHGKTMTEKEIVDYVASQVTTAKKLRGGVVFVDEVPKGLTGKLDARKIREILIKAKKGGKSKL

With `Oc1cc(Cl)ccc1Oc1ccc(Cl)cc1Cl` [Triclosan, 5-Chloro-2-(2,4-dichlorophenoxy) phenol] the “baseline TR-mediated transcriptional activity lower than vehicle control (agonist setup)” value ([1]; 10 μM) was > 50%, the pIC50 [2, 20] was 5.44 and the “lower TR RTA than spike-in control” value ([2]; 5 μM; vs 0.1% DMSO with 0.25 nM T3) was 71.9%. For the same molecule, the “TR antagonist activity, call” value ([2]; GH3.TRE-Luc) was “Antagonist”, the “concentration with TR antagonist activity” value ([2]; GH3.TRE-Luc) was 5 µM and the inhibition at 50 µM [3] was ~12%. For the same molecule, the “effect on GR” value [4] was “No effect in MDA-kb2 at 5μM ([Kolšek et al. 2014a])”, the “effect on TR” value [5] was “No effect in ZFL cell line ([Zhou et al. 2017])” and the “effect on stickleback AR” value [6] was “Antagonist at 10μM in stickleback AR reporter assay ([Lange et al. 2015])”. The peak plasma concentration ([7]; 10 healthy volunteers, single dose of mouthwash) was 0.5 to 1.2 µM, the “preexperiment median plasma baseline concentration” value ([7]; 10 healthy volunteers) was 5.5 nM and the “time of plasma peak after exposure” value [7] was “up to 3 h”. The pEC50 [8] was 4.56, the “binding affinity assay on isolated GR, result” value [8] was “positive” and the “lower GR RTA than vehicle control (agonist assay)” value [9] was 53.6%. The “lower GR RTA than spike-in control” value ([10]; 10 μM, vs 0.1% DMSO with 500 nM HC) was 53.2% and the “GR antagonist activity, call” value ([10]; MDA-kb2) was “Antagonist”.
In the case of `Oc1ccc(Cl)cc1Cc1ccccc1` [Chlorophene, 2-Benzyl-4-chlorophenol], the “lower AR RTA than spike-in control” value ([11]; 10 μM, vs 0.1% DMSO with 500 pM DHT) was > 90%, the pIC50 ([11]; AR antagonist IC50, AR-EcoScreen, 500 pM DHT) was 5.63 and 5.62 and the “AR antagonist activity, call” value ([11]; AR-EcoScreen) was “Antagonist”. For the same molecule, the pEC50 [12] was 5.67, the “binding affinity assay on isolated AR, result” value ([12]; in words, tested up to 10 μM) was “positive” and the “TR antagonist activity, call” value ([2]; GH3.TRE-Luc) was “Antagonist”. The “concentration with TR antagonist activity” value ([2]; GH3.TRE-Luc) was 10 µM, the inhibition at 50 µM [3] was ~12% and the “effect on stickleback AR” value [6] was “Antagonist at 10μM in a stickleback AR reporter assay ([Lange et al. 2015])”. For the same molecule, the pIC50 ([13]; antiandrogenic, read-out: anti-YAS IC50) was 6.27, the “effect on AR, yeast based assay” value [13] was “Antagonist ([Rostkowski et al. 2011])” and the pIC50 ([14]; antiandrogenic, read-out: AR-CALUX IC50) was 6.10. For the same molecule, the “effect on AR in AR-CALUX assay” value [14] was “Antagonist in AR-CALUX assay ([Rostkowski et al. 2011])”, the “binding affinity assay on isolated GR, result” value [8] was “positive” and the pEC50 ([8]; read-out: binding to isolated GR, EC50) was 4.98. For the same molecule, the “highest tested concentration as limited by precipitation and cytotoxicity” value [15] was 50 µM and the “GR activity in MDA-kb2 cell line, call” value ([10]; 10 μM) was “Negative”.
In the case of `Oc1c(Br)cc(Cl)cc1Cc1cc(Cl)cc(Br)c1O` [Bromochlorophene, 2,2’-methylenebis(6-bromo-4-chlorophenol)], the “baseline TR-mediated transcriptional activity lower than vehicle control (agonist setup)” value ([1]; 1 μM) was > 50%, the “baseline TR-mediated transcriptional activity lower than vehicle control (agonist setup)” value ([1]; 10 μM) was > 50% and the pIC50 [2, 20] was 6.30 and 6.29. For the same molecule, the “lower TR RTA than spike-in control” value ([2]; 10 μM; vs 0.1% DMSO with 0.25 nM T3) was 92.9%, the “TR antagonist activity, call” value ([2]; GH3.TRE-Luc) was “Antagonist” and the “inhibition of firefly luciferase luminescence signal” value ([3]; 50 μM) was 26.1%. The highest noncytotoxic concentration [16] was 2.5 µM.
With `CC(C)(c1ccc(O)cc1)c1ccc(O)cc1` [BPA, bisphenol A, reference compound] the pIC50 ([2]; read-out: TR antagonist IC50; 0.25 nM T3) was 4.38.
For `C[C@]12CC[C@@H]3c4ccc(O)cc4CC[C@H]3[C@@H]1CC[C@@H]2O` [E2, 17β-estradiol, reference compound], the “increase in AroB transcription” value [17] is given as 8 fold.
With `CC(C)(C)C(=O)C(Oc1ccc(Cl)cc1)n1ccnc1` (stereo not drawn) [Climbazole, 1-(4-Chlorophenoxy)-1-(imidazol-1-yl)-3,3-dimethylbutan-2-one] the “TR antagonist activity, call” value ([2]; GH3.TRE-Luc) was “Antagonist”, the “concentration with TR antagonist activity” value ([2]; GH3.TRE-Luc) was 10 µM and the inhibition at 50 µM [3] was ~12%. For the same molecule, the “effect on ER, yeast based assay” value [18] was “No effect ([Westlund and Yargeau 2017])”, the “higher ERα RTA than vehicle control” value ([19]; 10 μM) was > 30.0% and 36.6% and the “higher ERα RTA than vehicle control” value ([19]; 100 μM) was 94%. For the same molecule, the “ERα agonist activity, call” value ([19]; hERα-HeLa-9903) was “Agonist” and the “concentration with ERα agonist activity” value ([19]; hERα-HeLa-9903) was 10 to 100 µM.
